ChEMBL document CHEMBL2010706, “Microfluidic technology: an economical and versatile approach for the synthesis of O-(2-[18F]fluoroethyl)-L-tyrosine ([18F]FET)” (Bioorg Med Chem Lett, 2012)

Experiments:
Nucleic Acid = experiment: Ratio of drug uptake in tumor to muscle of Balb/c mouse after 60 mins […] by PET analysis; assay type: ADME, nucleic-acid assay; settings: in vivo, 1 h
[1] = Drug uptake in mouse EMT6 tumor xenografted in Balb/c mouse assessed per mg of protein after 15 mins by PET analysis; assay type: ADME, Neoplasm; settings: in vivo, 0.25 h
Muscle tissue [2] = experiment: Drug uptake in Balb/c mouse muscle after 10 mins by PET analysis; assay type: ADME, tissue-based; settings: in vivo
[3] = Drug uptake in mouse EMT6 tumor xenografted in Balb/c mouse after 60 mins by PET analysis; assay type: ADME, Neoplasm; settings: in vivo, 1 h
Muscle tissue [4] = experiment: Drug uptake in Balb/c mouse muscle after 30 to 60 mins by PET analysis; assay type: ADME, tissue-based; settings: in vivo
[5] = Drug uptake in mouse EMT6 tumor xenografted in Balb/c mouse assessed per mg of protein after 100 mins by PET analysis; assay type: ADME, Neoplasm; settings: in vivo
[6] = Drug uptake in mouse EMT6 tumor xenografted in Balb/c mouse after 30 mins by PET analysis; assay type: ADME, Neoplasm; settings: in vivo, 0.5 h

- Ratio (Nucleic Acid): 4.04
- Drug uptake [1]: 105 %ID
- Drug uptake (Muscle tissue [2]): Active
- SUV [3]: 1.21
- Drug uptake (Muscle tissue [4]): Not Active
- Drug uptake [5]: 60 %ID
- SUV [6]: 1.28
Compound: N[C@@H](Cc1ccc(OCC[18F])cc1)C(=O)O [FLORETYROSINE F18]
